Assays:
Format in all cases: binding
rD2BPL3 [1] = biological target: T1, rD2BPL3 (Bryopsis plumosa, UniProt A0A1J0CRG2); assay: inhibition of hemagglutination, human erythrocytes; conditions: PBS, 4 HU lectin, human type B erythrocytes, two-fold dilutions
T1 construct: artificial tandem repeat of two identical BPL3 domains in one chain, 4-residue linker
T1 sequence (A0A1J0CRG2 29-134): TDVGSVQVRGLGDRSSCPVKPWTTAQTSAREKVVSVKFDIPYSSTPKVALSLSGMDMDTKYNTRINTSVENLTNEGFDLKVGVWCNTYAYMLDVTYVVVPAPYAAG
Text: inhibition of hemagglutination, human erythrocytes on rD2BPL3

native BPL3 [2] = biological target: T2, native BPL3 (Bryopsis plumosa, UniProt A0A1J0CRG2); assay: inhibition of hemagglutination, human erythrocytes; conditions: PBS, 4 HU lectin, human type B erythrocytes, two-fold dilutions
T2 construct: native purification from alga by GalNAc-agarose, eluted with GlcNAc; not pure, BPL4 band seen; may consist of 2-6 domains
T2 sequence (A0A1J0CRG2 29-134): T1 sequence (A0A1J0CRG2 29-134)
Text: inhibition of hemagglutination, human erythrocytes on native BPL3

rD2BPL3 [3] = biological target: T1, rD2BPL3; assay: glycan microarray, biotinylated lectin, Cy3-streptavidin; conditions: 50 μg/mL lectin; glycan immobilised through spacer
Text: glycan microarray, biotinylated lectin, Cy3-streptavidin on rD2BPL3

native BPL3 [4] = biological target: T2, native BPL3; assay: as above; conditions: 50 μg/mL lectin; glycan immobilised through spacer
Text: glycan microarray, biotinylated lectin, Cy3-streptavidin on native BPL3

Molecule: CC(=O)N[C@H]1C(O)O[C@H](CO)[C@H](O)[C@@H]1O (stereo partly drawn) [N-acetyl-D-galactosamine]
- Minimum Inhibitory Concentration / rD2BPL3 (rD2BPL3 [1]): 31.25 mM
- Minimum Inhibitory Concentration / Native BPL3 (native BPL3 [2]): 62.5 mM

Molecule: D-Cellose-β-Sp1 [compound 87]
- RFU (Normalized) / rD2BPL3 (rD2BPL3 [3]): 1119 RFU

Molecule: CC(=O)N[C@H]1C(O)O[C@H](CO)[C@@H](O)[C@@H]1O (stereo partly drawn) [N-acetyl-D-glucosamine]
- Minimum Inhibitory Concentration / rD2BPL3 (rD2BPL3 [1]): 62.5 mM
- Minimum Inhibitory Concentration / Native BPL3 (native BPL3 [2]): 125 mM

Molecule: α-Fuc-Sp [compound 4]
- RFU (Normalized) / rD2BPL3 (rD2BPL3 [3]): 1313 RFU

Molecule: GlcNAc-β-1,2-Man-α-Sp [compound 45]
- RFU (Normalized) / rD2BPL3 (rD2BPL3 [3]): 1290 RFU

Molecule: α-Man-Sp [compound 3]
- RFU (Normalized) / rD2BPL3 (rD2BPL3 [3]): 1322 RFU
- RFU (Normalized) / Native BPL3 (native BPL3 [4]): 1025 RFU
